These results are taken from patent US20240025884A1 (Dong-A ST Co., Ltd., priority 2022, published 2024).

SMILES strings stand for the structures. Where only a bound is given, the exact number is not on record here.

This assay concerns the target GCN2 (Homo sapiens (Human), UniProt Q9P2K8). Briefly: GCN2 Biochemical Assay (TR-FRET, GFP-eIF2S1 substrate phosphorylation). The conditions noted are these: read-out: IC50 (GCN2 Inhibitory Activity). In outline: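 TR-FRET readout (Ex 340, Em 490/520 nm) after 2–3 h with Tb-labelled phospho-eIF2S1 antibody in stop mix, following a 70 min room-temperature kinase step. Reaction: in-house GCN2, GFP-eIF2S1, ATP, tRNA in Tris pH 7.5 (2× stocks 1.6 nM, 50 nM, 0.2 mM); compounds tested at 10 concentrations, with a phospho-substrate artifact counter-plate.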

Chain of GCN2 (Q9P2K8 whole entry): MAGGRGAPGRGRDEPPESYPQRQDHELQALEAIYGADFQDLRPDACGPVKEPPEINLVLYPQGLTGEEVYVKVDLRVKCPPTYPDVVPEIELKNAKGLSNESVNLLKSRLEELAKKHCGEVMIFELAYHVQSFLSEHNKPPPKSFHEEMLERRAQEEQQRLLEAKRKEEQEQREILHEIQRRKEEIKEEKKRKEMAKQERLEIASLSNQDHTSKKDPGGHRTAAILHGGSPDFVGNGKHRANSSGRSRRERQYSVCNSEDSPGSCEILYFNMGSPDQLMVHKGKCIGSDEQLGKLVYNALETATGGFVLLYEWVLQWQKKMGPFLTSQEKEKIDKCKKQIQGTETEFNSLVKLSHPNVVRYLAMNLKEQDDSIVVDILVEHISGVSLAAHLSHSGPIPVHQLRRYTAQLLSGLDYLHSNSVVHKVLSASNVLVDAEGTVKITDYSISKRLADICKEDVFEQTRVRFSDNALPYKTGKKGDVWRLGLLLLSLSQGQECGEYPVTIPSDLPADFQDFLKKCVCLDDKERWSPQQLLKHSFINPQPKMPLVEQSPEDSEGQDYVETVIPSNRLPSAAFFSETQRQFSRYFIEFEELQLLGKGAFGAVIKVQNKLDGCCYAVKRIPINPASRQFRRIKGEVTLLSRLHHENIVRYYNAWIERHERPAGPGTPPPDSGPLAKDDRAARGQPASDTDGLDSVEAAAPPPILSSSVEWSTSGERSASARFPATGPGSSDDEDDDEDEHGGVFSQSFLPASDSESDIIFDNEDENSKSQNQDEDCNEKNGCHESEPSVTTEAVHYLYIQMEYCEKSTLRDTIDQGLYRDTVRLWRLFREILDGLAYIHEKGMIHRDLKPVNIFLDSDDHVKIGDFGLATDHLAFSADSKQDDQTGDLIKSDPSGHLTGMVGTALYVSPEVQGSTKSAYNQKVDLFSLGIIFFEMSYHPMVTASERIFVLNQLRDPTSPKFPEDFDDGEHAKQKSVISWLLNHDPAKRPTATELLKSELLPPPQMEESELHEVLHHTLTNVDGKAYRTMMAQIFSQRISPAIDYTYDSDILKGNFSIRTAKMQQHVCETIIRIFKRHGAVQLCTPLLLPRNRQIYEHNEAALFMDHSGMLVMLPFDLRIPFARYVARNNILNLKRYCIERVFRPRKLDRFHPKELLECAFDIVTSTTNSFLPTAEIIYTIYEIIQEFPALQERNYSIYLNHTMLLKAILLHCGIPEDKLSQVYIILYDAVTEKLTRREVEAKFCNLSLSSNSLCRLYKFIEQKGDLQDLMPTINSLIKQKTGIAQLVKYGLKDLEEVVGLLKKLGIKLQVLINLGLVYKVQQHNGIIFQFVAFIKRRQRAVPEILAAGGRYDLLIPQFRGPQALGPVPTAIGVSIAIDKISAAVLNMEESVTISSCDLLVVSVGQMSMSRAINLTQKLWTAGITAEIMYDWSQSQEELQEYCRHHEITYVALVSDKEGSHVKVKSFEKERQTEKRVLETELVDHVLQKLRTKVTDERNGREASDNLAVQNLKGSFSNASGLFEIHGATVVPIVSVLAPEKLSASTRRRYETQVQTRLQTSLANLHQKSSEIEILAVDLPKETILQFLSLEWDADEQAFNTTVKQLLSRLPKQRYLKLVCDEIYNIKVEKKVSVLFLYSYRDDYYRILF

By IC50 is commonly meant the point on the concentration scale where inhibition reaches its midpoint. As to `Cc1cnc(Nc2cc(C)n(C)n2)nc1-c1c[nH]c2c(N3Cc4c(cccc4-c4ccc5cnn(C)c5c4)C3=O)cccc12` [Example 450, 2-(3-(2-((1,5-dimethyl-1H-pyrazol-3-yl)amino)-5-methylpyrimidin-4-yl)-1H-indol-7-yl)-4-(i-methyl-1H-indazol-6-yl)isoindolin-1-one], the IC50 lay within 10 to 100 nM.

As for `Cc1cnc(Nc2cc(C)n(C)n2)nc1-c1c[nH]c2c(NC(=O)CN3CC[C@H](Oc4ncc(F)c(N5CCSCC5)n4)C3)cccc12` [Example 189, (S)-N-(3-(2-((1,5-dimethyl-1H-pyrazol-3-yl)amino)-5-methylpyrimidin-4-yl)-1H-indol-7-yl)-2-(3-((5-fluoro-4-thiomorpholinopyrimidin-2-yl)oxy)pyrrolidin-1-yl)acetamide], the IC50 was less than 10 nM.

With `Cc1cnc(Nc2cc(C)n(C)n2)nc1-c1c[nH]c2c(NC(=O)CN3CC(Oc4ccncc4)C3)cccc12` [Example 28, N-(3-(2-((1,5-dimethyl-1H-pyrazol-3-yl)amino)-5-methylpyrimidin-4-yl)-1H-indol-7-yl)-2-(3-(pyridin-4-yloxy)azetidin-1-yl)acetamide], the IC50 was in the range of 10 to 100 nM.

For `Cc1cnc(Nc2cc(C)n(C)n2)nc1-c1c[nH]c2c(NC(=O)CN3CC[C@H](Oc4ccnc(NCc5ccccc5)n4)C3)cccc12` [Example 214, (S)-2-(3-((2-(benzylamino)pyrimidin-4-yl)oxy)pyrrolidin-1-yl)-N-(3-(2-((1,5-dimethyl-1H-pyrazol-3-yl)amino)-5-methylpyrimidin-4-yl)-1H-indol-7-yl)acetamide], the IC50 was less than 10 nM.

Regarding `Cc1cnc(Nc2cc(C)n(C)n2)nc1-c1c[nH]c2c(NC(=O)CN3CC[C@H](Oc4ncnc(NC5CC5)n4)C3)cccc12` [Example 137, (S)-2-(3-((4-(cyclopropylamino)-1,3,5-triazin-2-yl)oxy)pyrrolidin-1-yl)-N-(3-(2-((1,5-dimethyl-1H-pyrazol-3-yl)amino)-5-methylpyrimidin-4-yl)-1H-indol-7-yl)acetamide], the IC50 was less than 10 nM.

On to `Cc1cnc(Nc2cc(C)n(C)n2)nc1-c1c[nH]c2c(NC(=O)CN3CC[C@H](Oc4cncc(C(N)=O)n4)C3)cccc12` [Example 132, (S)-6-((1-(2-((3-(2-((1,5-dimethyl-1H-pyrazol-3-yl)amino)-5-methylpyrimidin-4-yl)-1H-indol-7-yl)amino)-2-oxoethyl)pyrrolidin-3-yl)oxy)pyrazine-2-carboxamide], for which the IC50 is less than 10 nM.

Regarding `Cc1cnccc1-c1ccc(F)c2c1CN(c1cccc3c(-c4nc(Nc5cc(C)n(C)n5)ncc4C)c[nH]c13)C2=O` [Example 487, 2-(3-(2-((1,5-dimethyl-1H-pyrazol-3-yl)amino)-5-methylpyrimidin-4-yl)-1H-indol-7-yl)-7-fluoro-4-(3-methylpyridin-4-yl)isoindolin-1-one], the IC50 is less than 10 nM.

For `Cc1cnc(Nc2cc(C)n(C)n2)nc1-c1c[nH]c2c(NC(=O)CN3CC[C@H](Oc4ccc(CN5CCN(C)CC5)cc4)C3)cccc12` [Example 103, (S)-N-(3-(2-((1,5-dimethyl-1H-pyrazol-3-yl)amino)-5-methylpyrimidin-4-yl)-1H-indol-7-yl)-2-(3-(4-((4-methylpiperazin-1-yl)methyl)phenoxy)pyrrolidin-1-yl)acetamide], the IC50 is 10 to 100 nM.

Turning to `Cc1cnc(Nc2cc(C)n(C)n2)nc1-c1c[nH]c2c(N3Cc4c(cccc4-c4ccnc(C(N)=O)c4)C3=O)cccc12` [Example 473, 4-(2-(3-(2-((1,5-dimethyl-1H-pyrazol-3-yl)amino)-5-methylpyrimidin-4-yl)-1H-indol-7-yl)-1-oxoisoindolin-4-yl)picolinamide], the IC50 is less than 10 nM.

`Cc1cnc(Nc2cc(C)n(C)n2)nc1-c1c[nH]c2c(N3Cc4c(NC(=O)[C@@H]5CCNC5)cccc4C3=O)cccc12` [Example 315, (R)-N-(2-(3-(2-((1,5-dimethyl-1H-pyrazol-3-yl)amino)-5-methylpyrimidin-4-yl)-1H-indol-7-yl)-1-oxoisoindolin-4-yl)pyrrolidine-3-carboxamide]: the IC50 was less than 10 nM.
